From patent US9789100B2, “Compounds as rearranged during transfection (RET) inhibitors” (GlaxoSmithKline Intellectual Property Development Limited, priority 2013, dated 2017)
Counter-ions that a name gives are not always drawn. Like-named read-outs stand apart in the source and are kept apart here.

Key:
[1] = target: Human RET kinase cytoplasmic domain (Homo sapiens (Human), UniProt P07949); test: RET kinase enzymatic assay; format: biochemical; conditions: human RET kinase enzymatic assay (Table 2)
Description: RET Kinase Enzymatic Assay
GST-RET was purified using glutathione sepharose chromatography. The RET kinase enzymatic assay was performed in a total volume of 10 uL with increasing concentrations of RET kinase inhibitor as a singlet in a 384 well format as follows: RET inhibitor compound plates are prepared by adding 100 nL of RET inhibitor at different concentrations to a 384-well plate. 5 μL/well of a 2× enzyme mix (50 mM HEPES (4-(2-hydroxyethyl)-1-piperazineethanesulfonic acid); 1 mM CHAPS (3[(3-cholamidopropyl)dimethylammonio]-1-propanesulfonate); 0.1 mg/mL BSA (bovine serum albumin); 1 mM DTT (dithiothreitol); 0.2 nM RET kinase) was added to the 384-well plate and incubated for 30 minutes at 23° C.

[2] = target: constitutive RET kinase phosphorylation in TT cells (Homo sapiens (Human), UniProt P07949, C634W); test: RET kinase cell-based mechanistic assay
Description: RET Kinase Cell-Based Mechanistic Assay
The potency of the compound of the invention was tested for its ability to inhibit constitutive RET kinase phosphorylation in cell-based assay. […] 1.0E5 TT cells/well were plated in a 96-well cell culture plate and allowed to adhere overnight. […] IC50s were fitted using GraphPad Prism to a sigmoidal dose response.

TT cells = test: RET kinase cell-based proliferation assay; design: species or system human; conditions: 192 h, read-out: RET IC50
Excerpt: RET Kinase Cell-Based Proliferation Assay

[3] = human RET kinase cell-based proliferation assay, TT cells, eight days (Table 4)

Chain of Human RET kinase cytoplasmic domain (P07949 658-1114): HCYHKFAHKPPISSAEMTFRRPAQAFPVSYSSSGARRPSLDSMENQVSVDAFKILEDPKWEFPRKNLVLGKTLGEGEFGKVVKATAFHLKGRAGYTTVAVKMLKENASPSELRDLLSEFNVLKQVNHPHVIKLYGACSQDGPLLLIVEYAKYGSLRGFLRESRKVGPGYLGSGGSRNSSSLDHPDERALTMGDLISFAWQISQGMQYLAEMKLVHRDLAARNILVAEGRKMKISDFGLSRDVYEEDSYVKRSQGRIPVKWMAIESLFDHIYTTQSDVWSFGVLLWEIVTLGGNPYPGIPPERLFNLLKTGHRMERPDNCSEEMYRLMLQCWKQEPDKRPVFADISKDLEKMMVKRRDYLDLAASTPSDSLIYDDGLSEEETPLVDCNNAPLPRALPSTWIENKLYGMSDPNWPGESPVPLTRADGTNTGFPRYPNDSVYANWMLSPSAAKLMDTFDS
Chain of constitutive RET kinase phosphorylation in TT cells (P07949 29-1114 C634W): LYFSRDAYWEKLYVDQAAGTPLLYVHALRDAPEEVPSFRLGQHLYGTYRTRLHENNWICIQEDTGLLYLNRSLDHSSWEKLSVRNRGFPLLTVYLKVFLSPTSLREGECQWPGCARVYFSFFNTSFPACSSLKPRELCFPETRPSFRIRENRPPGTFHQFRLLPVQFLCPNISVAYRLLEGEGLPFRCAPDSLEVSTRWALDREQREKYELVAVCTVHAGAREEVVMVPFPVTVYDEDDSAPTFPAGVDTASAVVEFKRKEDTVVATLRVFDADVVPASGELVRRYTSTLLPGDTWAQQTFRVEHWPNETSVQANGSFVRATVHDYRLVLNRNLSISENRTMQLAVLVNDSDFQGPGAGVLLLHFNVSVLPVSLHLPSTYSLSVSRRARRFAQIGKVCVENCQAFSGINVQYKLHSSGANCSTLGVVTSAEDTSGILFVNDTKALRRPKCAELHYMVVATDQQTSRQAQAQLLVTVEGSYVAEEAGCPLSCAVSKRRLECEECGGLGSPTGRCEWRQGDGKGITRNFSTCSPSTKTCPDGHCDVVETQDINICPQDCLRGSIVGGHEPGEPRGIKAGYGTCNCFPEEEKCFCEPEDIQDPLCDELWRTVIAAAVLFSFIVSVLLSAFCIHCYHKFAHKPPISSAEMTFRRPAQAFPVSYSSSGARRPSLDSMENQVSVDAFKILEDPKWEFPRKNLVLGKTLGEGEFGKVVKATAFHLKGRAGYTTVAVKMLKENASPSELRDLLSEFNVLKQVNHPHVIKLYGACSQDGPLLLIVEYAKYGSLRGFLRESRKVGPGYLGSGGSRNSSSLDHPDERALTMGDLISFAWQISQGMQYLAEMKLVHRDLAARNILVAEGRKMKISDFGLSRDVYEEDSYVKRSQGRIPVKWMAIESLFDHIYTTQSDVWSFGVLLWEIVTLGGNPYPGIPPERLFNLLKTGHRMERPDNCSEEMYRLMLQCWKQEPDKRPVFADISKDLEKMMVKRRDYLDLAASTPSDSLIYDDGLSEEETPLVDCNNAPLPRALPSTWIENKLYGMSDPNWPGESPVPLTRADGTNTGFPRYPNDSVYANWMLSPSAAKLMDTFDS

CCOc1cc(-c2ccc(CC(=O)Nc3cnc(C(C)(C)O)c(C(F)(F)F)c3)c(F)c2)c[nH]c1=O [Example 1, 2-(4-(5-Ethoxy-6-oxo-1,6-dihydropyridin-3-yl)-2-fluorophenyl)-N-(6-(2-hydroxypropan-2-yl)-5-(trifluoromethyl)pyridin-3-yl)acetamide] was tested, and the IC50 [1] was less than 0.1 µM.

In the case of CCOc1ncc(NC(=O)Cc2ccc(-c3c[nH]c(=O)c(OCC)c3)cc2F)cc1C(F)(F)F [Example 2, N-(6-Ethoxy-5-(trifluoromethyl)pyridin-3-yl)-2-(4-(5-ethoxy-6-oxo-1,6-dihydropyridin-3-yl)-2-fluorophenyl)acetamide hydrochloride], the IC50 [1] is reported as less than 0.1 µM.

CCOc1cc(-c2ccc(CC(=O)Nc3ccc(CC(C)(C)CO)c(C(F)(F)F)c3)c(F)c2)c[nH]c1=O [Example 5, 2-(4-(5-Ethoxy-6-oxo-1,6-dihydropyridin-3-yl)-2-fluorophenyl)-N-(4-(3-hydroxy-2,2-dimethylpropyl)-3-(trifluoromethyl)phenyl)acetamide] gave an IC50 [1] of less than 0.1 µM.

Compound CCOc1cc(-c2ccc(CC(=O)Nc3ccc(CC(C)(C)CO)c(C(F)(F)F)c3)cc2F)c[nH]c1=O [Example 6, 2-(4-(5-Ethoxy-6-oxo-1,6-dihydropyridin-3-yl)-3-fluorophenyl)-N-(4-(3-hydroxy-2,2-dimethylpropyl)-3-(trifluoromethyl)phenyl)acetamide] has an IC50 [1] of less than 0.1 µM.

Work on CCOc1cc(=O)[nH]cc1-c1ccc(CC(=O)Nc2ccc(C#N)c(C(F)(F)F)c2)cc1F [Example 7, N-(4-Cyano-3-(trifluoromethyl)phenyl)-2-(4-(4-ethoxy-6-oxo-1,6-dihydropyridin-3-yl)-3-fluorophenyl)acetamide] yielded an IC50 [1] of less than 0.1 µM.

Work on CCOc1cc(-c2ccc(CC(=O)Nc3ccc(C#N)c(C(F)(F)F)c3)c(F)c2)c[nH]c1=O [Example 9, N-(4-Cyano-3-(trifluoro-methyl)phenyl)-2-(4-(5-ethoxy-6-oxo-1,6-dihydro-pyridin-3-yl)-2-fluorophenyl)acetamide] yielded an IC50 [1] of less than 0.1 µM.

In the case of CCOc1cc(=O)[nH]cc1-c1ccc(CC(=O)Nc2cnc(OCCN(C)C)c(C(F)(F)F)c2)c(F)c1 [Example 10, N-(6-(2-(Dimethylamino)ethoxy)-5-(trifluoromethyl)pyridin-3-yl)-2-(4-(4-ethoxy-6-oxo-1,6-dihydropyridin-3-yl)-2-fluorophenyl)acetamide dihydrochloride], the IC50 [1] is reported as 0.1 to 0.5 µM, the IC50 [2] is reported as 0.5 to 10 µM and the IC50 (TT cells; Homo sapiens, TT) is reported as 0.5 to 10 µM.

CCOc1cc(-c2ccc(CC(=O)Nc3cc(-n4cnc(C)c4)cc(C(F)(F)F)c3)c(F)c2)c[nH]c1=O [Example 11, 2-(4-(5-Ethoxy-6-oxo-1,6-dihydropyridin-3-yl)-2-fluorophenyl)-N-(3-(4-methyl-1H-imidazol-1-yl)-5-(trifluoromethyl)phenyl)acetamide hydrochloride] showed an IC50 [1] of less than 0.1 µM.

In the case of CCOc1cc(-c2ccc(CC(=O)Nc3ccc(OCCO)c(C(F)(F)F)c3)c(F)c2)c[nH]c1=O [Example 13, 2-(4-(5-Ethoxy-6-oxo-1,6-dihydropyridin-3-yl)-2-fluorophenyl)-N-(4-(2-hydroxyethoxy)-3-(trifluoromethyl)phenyl)acetamide], the IC50 [1] is reported as less than 0.1 µM.

For CCOc1cc(-c2ccc(CC(=O)Nc3cnc(CC#N)c(C(F)(F)F)c3)c(F)c2)c[nH]c1=O [Example 14, N-(6-(Cyanomethyl)-5-(trifluoromethyl)pyridin-3-yl)-2-(4-(5-ethoxy-6-oxo-1,6-dihydropyridin-3-yl)-2-fluorophenyl)acetamide hydrochloride], the IC50 [1] was 0.5 to 10 µM.

CCOc1cc(-c2ccc(CC(=O)Nc3ccc(Cl)c(C(F)(F)F)c3)c(F)c2)c[nH]c1=O [Example 16, N-(4-Chloro-3-(trifluoromethyl)phenyl)-2-(4-(5-ethoxy-6-oxo-1,6-dihydropyridin-3-yl)-2-fluorophenyl)acetamide] showed an IC50 [1] of less than 0.1 µM.

Compound CCOc1cc(-c2ccc(CC(=O)Nc3ccc(CN(C)C)c(C(F)(F)F)c3)c(F)c2)c[nH]c1=O [Example 17, N-(4-((Dimethylamino)methyl)-3-(trifluoromethyl)phenyl)-2-(4-(5-ethoxy-6-oxo-1,6-dihydropyridin-3-yl)-2-fluorophenyl)acetamide hydrochloride] has an IC50 [1] of less than 0.1 µM.

CCOc1cc(-c2ccc(CC(=O)Nc3ccc(Cl)c(Cl)c3)c(F)c2)c[nH]c1=O [Example 18, N-(3,4-Dichlorophenyl)-2-(4-(5-ethoxy-6-oxo-1,6-dihydropyridin-3-yl)-2-fluorophenyl)acetamide] was tested, and the IC50 [1] was 0.1 to 0.5 µM.

For CCOc1cc(-c2ccc(CC(=O)Nc3cc(C(C)(C)C(F)(F)F)on3)c(F)c2)c[nH]c1=O [Example 19, 2-(4-(5-Ethoxy-6-oxo-1,6-dihydropyridin-3-yl)-2-fluorophenyl)-N-(5-(1,1,1-trifluoro-2-methylpropan-2-yl)isoxazol-3-yl)acetamide], the IC50 [1] was less than 0.1 µM.

CCOc1cc(-c2ccc(CC(=O)Nc3ccc(CN4CCN(CC)CC4)c(C(F)(F)F)c3)c(F)c2)c[nH]c1=O [Example 21, 2-(4-(5-Ethoxy-6-oxo-1,6-dihydropyridin-3-yl)-2-fluorophenyl)-N-(4-((4-ethylpiperazin-1-yl)methyl)-3-(trifluoromethyl)phenyl)acetamide, dihydrochloride] showed an IC50 [1] of less than 0.1 µM and an IC50 [2] of less than 0.1 µM.

With CCOc1cc(-c2ccc(CC(=O)Nc3cc(F)ccc3F)c(F)c2)c[nH]c1=O [Example 22, N-(2,5-Difluorophenyl)-2-(4-(5-ethoxy-6-oxo-1,6-dihydropyridin-3-yl)-2-fluorophenyl)acetamide] the IC50 [1] was 0.5 to 10 µM.

Compound CCOc1cc(-c2ccc(CC(=O)Nc3ccc(C(N)=O)c(C(F)(F)F)c3)c(F)c2)c[nH]c1=O [Example 23] has an IC50 [1] of 0.1 to 0.5 µM.

CCOc1cc(-c2ccc(CC(=O)Nc3cc(C(F)(F)F)c(F)cc3F)c(F)c2)c[nH]c1=O [Example 24] was tested, and the IC50 [1] was less than 0.1 µM.

CCOc1cc(-c2ccc(CC(=O)Nc3cc(C(F)(F)F)cc(C(F)(F)F)c3)c(F)c2)c[nH]c1=O [Example 25] showed an IC50 [1] of less than 0.1 µM.

Compound CCOc1cc(-c2ccc(CC(=O)Nc3cc(C(C)(C)C(F)(F)F)no3)c(F)c2)c[nH]c1=O [Example 28, 2-(4-(5-Ethoxy-6-oxo-1,6-dihydropyridin-3-yl)-2-fluorophenyl)-N-(3-(1,1,1-trifluoro-2-methylpropan-2-yl)isoxazol-5-yl)acetamide] has an IC50 [1] of less than 0.1 µM, an IC50 [2] of less than 0.1 µM and an IC50 (TT cells; [3]) of less than 0.1 µM.

For CCOc1cc(=O)[nH]cc1-c1ccc(CC(=O)Nc2cnc(C(C)(C)CO)c(C(F)(F)F)c2)c(F)c1 [Example 31, 2-(4-(4-Ethoxy-6-oxo-1,6-dihydropyridin-3-yl)-2-fluorophenyl)-N-(6-(1-hydroxy-2-methylpropan-2-yl)-5-(trifluoromethyl)pyridin-3-yl)acetamide], the IC50 [1] was less than 0.1 µM, the IC50 [2] was less than 0.1 µM and the IC50 (TT cells; [3]) was less than 0.1 µM.

CCOc1cc(=O)[nH]cc1-c1ccc(CC(=O)Nc2ccc(CC(C)(C)CO)c(C(F)(F)F)c2)cc1F [Example 32, 2-(4-(4-Ethoxy-6-oxo-1,6-dihydropyridin-3-yl)-3-fluorophenyl)-N-(4-(3-hydroxy-2,2-dimethylpropyl)-3-(trifluoromethyl)phenyl)acetamide] gave an IC50 [1] of less than 0.1 µM, an IC50 [2] of less than 0.1 µM and an IC50 (TT cells; [3]) of less than 0.1 µM.

With CCOc1cc(-c2ccc(CC(=O)Nc3cc(-n4cc(C)cn4)cc(C(F)(F)F)c3)c(F)c2)c[nH]c1=O [Example 34, 2-(4-(5-ethoxy-6-oxo-1,6-dihydropyridin-3-yl)-2-fluorophenyl)-N-(3-(4-methyl-1H-pyrazol-1-yl)-5-(trifluoromethyl)phenyl)acetamide hydrochloride] the IC50 [1] was less than 0.1 µM, the IC50 [2] was 0.1 to 0.5 µM and the IC50 (TT cells; Homo sapiens, TT) was 0.1 to 0.5 µM.

In the case of CCOc1cc(-c2ccc(CC(=O)Nc3cc(-n4ccc(C)n4)cc(C(F)(F)F)c3)c(F)c2)c[nH]c1=O [Example 35, 2-(4-(5-ethoxy-6-oxo-1,6-dihydropyridin-3-yl)-2-fluorophenyl)-N-(3-(3-methyl-1H-pyrazol-1-yl)-5-(trifluoromethyl)phenyl)acetamide hydrochloride], the IC50 [1] is reported as less than 0.1 µM, the IC50 [2] is reported as less than 0.1 µM and the IC50 (TT cells; Homo sapiens, TT) is reported as 0.1 to 0.5 µM.

For CCOc1cc(-c2ccc(CC(=O)Nc3cc(-c4cn[nH]c4)cc(C(F)(F)F)c3)c(F)c2)c[nH]c1=O [Example 36, N-(3-(1H-pyrazol-4-yl)-5-(trifluoromethyl)phenyl)-2-(4-(5-ethoxy-6-oxo-1,6-dihydropyridin-3-yl)-2-fluorophenyl)acetamide hydrochloride], the IC50 [1] was less than 0.1 µM, the IC50 [2] was less than 0.1 µM and the IC50 (TT cells; Homo sapiens, TT) was 0.1 to 0.5 µM.

Work on CCOc1cc(=O)[nH]cc1-c1ccc(CC(=O)Nc2ccc(C(C)(C)C(F)(F)F)nc2)c(F)c1 [Example 37, 2-(4-(4-ethoxy-6-oxo-1,6-dihydropyridin-3-yl)-2-fluorophenyl)-N-(6-(1,1,1-trifluoro-2-methylpropan-2-yl)pyridin-3-yl)acetamide hydrochloride] yielded an IC50 [1] of less than 0.1 µM, an IC50 [2] of 0.1 to 0.5 µM and an IC50 (TT cells; Homo sapiens, TT) of 0.5 to 10 µM.

For CCOc1cc(-c2ccc(CC(=O)Nc3cc(OCCN4CCOCC4)cc(C(F)(F)F)c3)c(F)c2)c[nH]c1=O [Example 39, 2-(4-(5-ethoxy-6-oxo-1,6-dihydropyridin-3-yl)-2-fluorophenyl)-N-(3-(2-morpholinoethoxy)-5-(trifluoromethyl)phenyl)acetamide], the IC50 [1] was less than 0.1 µM, the IC50 [2] was less than 0.1 µM and the IC50 (TT cells; [3]) was 0.1 to 0.5 µM.

With CCOc1cc(-c2ccc(CC(=O)Nc3cc(-c4nn[nH]n4)cc(C(F)(F)F)c3)c(F)c2)c[nH]c1=O [Example 44, N-(3-(2H-tetrazol-5-yl)-5-(trifluoromethyl)phenyl)-2-(4-(5-ethoxy-6-oxo-1,6-dihydropyridin-3-yl)-2-fluorophenyl)acetamide] the IC50 [1] was less than 0.1 µM.
